{
  "source": "PubChem BioAssay AID330",
  "about": "(DTP/NCI, 2004)",
  "test_system": "P388 leukemia ip, CD2F1 mice, survival T/C",
  "assay": "NCI In Vivo Anticancer Drug Screen. Data for tumor model P388 Leukemia (intraperitoneal) in CD2F1 (CDF1) mice",
  "conditions": "endpoint: median survival time, higher = longer survival",
  "in_short": "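Mice carrying the transplanted tumor received test compound or vehicle. Survival was recorded in each group, and the value is the treated-group measurement divided by that of the vehicle-treated control group.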",
  "key": {"[1]": {"conditions": "dose: 60.0 mg/kg/injection, schedule: Q01DX005 (ip), vehicle: saline with Tween-80"}, "[2]": {"conditions": "dose: 120.0 mg/kg/injection, schedule: Q01DX005 (ip), vehicle: saline with Tween-80"}, "[3]": {"conditions": "dose: 240.0 mg/kg/injection, schedule: Q01DX005 (ip), vehicle: saline with Tween-80"}, "[4]": {"conditions": "dose: 25.0 mg/kg/injection, schedule: Q01DX005 (ip), vehicle: Klucel (hydroxypropylcellulose) (HPC)"}, "[5]": {"conditions": "dose: 50.0 mg/kg/injection, schedule: Q01DX005 (ip), vehicle: Klucel (hydroxypropylcellulose) (HPC)"}, "[6]": {"conditions": "dose: 100.0 mg/kg/injection, schedule: Q01DX005 (ip), vehicle: Klucel (hydroxypropylcellulose) (HPC)"}, "[7]": {"conditions": "dose: 200.0 mg/kg/injection, schedule: Q01DX005 (ip), vehicle: Klucel (hydroxypropylcellulose) (HPC)"}},
  "note": "Values joined by “and” are separate entries in the source; they are usually repeats but may differ in a detail not shown here. Equal entries are not always repeated. Inconclusive results and toxic doses are left out.",
  "data": [
    {"molecule": "CN(C)NP(=O)(NN(C)C)Oc1ccccc1", "values": [
      {"measurement": "T/C", "setting": "dose: 50.0 mg/kg/injection, schedule: Q01DX005 (ip), vehicle: saline", "value": "97 % of control"},
      {"measurement": "T/C", "setting": "dose: 100.0 mg/kg/injection, schedule: Q01DX005 (ip), vehicle: saline", "value": "99 % of control"},
      {"measurement": "T/C", "setting": "dose: 200.0 mg/kg/injection, schedule: Q01DX005 (ip), vehicle: saline", "value": "103 % of control"}
    ]},
    {"molecule": "CCC[CH2][Sn]([CH2]CCC)([CH2]CCC)[CH2]CC[N+](C)(CCO)CCO.CS(=O)(=O)[O-]", "values": [
      {"measurement": "T/C", "setting": "dose: 3.12 mg/kg/injection, schedule: Q01DX009 (ip), vehicle: saline", "value": "87 % of control"},
      {"measurement": "T/C", "setting": "dose: 6.25 mg/kg/injection, schedule: Q01DX009 (ip), vehicle: saline", "value": "91 % of control"},
      {"measurement": "T/C", "setting": "dose: 12.5 mg/kg/injection, schedule: Q01DX009 (ip), vehicle: saline", "value": "97 % of control"},
      {"measurement": "T/C", "setting": "dose: 50.0 mg/kg/injection, schedule: Q01DX009 (ip), vehicle: saline", "value": "86 % of control"},
      {"measurement": "T/C", "setting": "dose: 100.0 mg/kg/injection, schedule: Q01DX009 (ip), vehicle: saline", "value": "95 % of control"},
      {"measurement": "T/C", "setting": "dose: 200.0 mg/kg/injection, schedule: Q01DX009 (ip), vehicle: saline", "value": "98 % of control"}
    ]},
    {"molecule": "COc1cc2c(c(OC)c1OC)-c1ccc(OC)c(=O)cc1CC=C2", "values": [
      {"measurement": "T/C", "setting": "dose: 1.25 mg/kg/injection, schedule: Q01DX009 (ip), vehicle: Klucel (hydroxypropylcellulose) (HPC)", "value": "124 % of control"},
      {"measurement": "T/C", "setting": "dose: 2.5 mg/kg/injection, schedule: Q01DX009 (ip), vehicle: Klucel (hydroxypropylcellulose) (HPC)", "value": "119 % of control and 120 % of control"},
      {"measurement": "T/C", "setting": "dose: 5.0 mg/kg/injection, schedule: Q01DX009 (ip), vehicle: Klucel (hydroxypropylcellulose) (HPC)", "value": "100 % of control"},
      {"measurement": "T/C", "setting": "dose: 10.0 mg/kg/injection, schedule: Q01DX009 (ip), vehicle: Klucel (hydroxypropylcellulose) (HPC)", "value": "170 % of control"}
    ]},
    {"molecule": "CC1(CCC(=O)c2ccc3c(c2)OCO3)OCCO1", "values": [
      {"measurement": "T/C", "setting": "[1]", "value": "116 % of control"},
      {"measurement": "T/C", "setting": "[2]", "value": "105 % of control"},
      {"measurement": "T/C", "setting": "[3]", "value": "100 % of control"}
    ]},
    {"molecule": "CC(=O)OCc1c(-c2ccccc2)nc2sccn12", "values": [
      {"measurement": "T/C", "setting": "dose: 100.0 mg/kg/injection, schedule: Q01DX001 (ip), vehicle: Klucel (hydroxypropylcellulose) (HPC)", "value": "98 % of control"},
      {"measurement": "T/C", "setting": "dose: 200.0 mg/kg/injection, schedule: Q01DX001 (ip), vehicle: Klucel (hydroxypropylcellulose) (HPC)", "value": "100 % of control"}
    ]},
    {"molecule": "NC(=O)N=Nc1ccc(Cl)c(Cl)c1", "values": [
      {"measurement": "T/C", "setting": "dose: 50.0 mg/kg/injection, schedule: Q01DX005 (ip), vehicle: saline with Tween-80", "value": "100 % of control"},
      {"measurement": "T/C", "setting": "dose: 100.0 mg/kg/injection, schedule: Q01DX005 (ip), vehicle: saline with Tween-80", "value": "102 % of control"},
      {"measurement": "T/C", "setting": "dose: 200.0 mg/kg/injection, schedule: Q01DX005 (ip), vehicle: saline with Tween-80", "value": "102 % of control"}
    ]},
    {"molecule": "Cc1ccc(-c2nnc3cc(C)n4nnnc4n23)cc1", "values": [
      {"measurement": "T/C", "setting": "dose: 6.25 mg/kg/injection, schedule: Q01DX005 (ip), vehicle: Klucel (hydroxypropylcellulose) (HPC)", "value": "101 % of control"},
      {"measurement": "T/C", "setting": "dose: 12.5 mg/kg/injection, schedule: Q01DX005 (ip), vehicle: Klucel (hydroxypropylcellulose) (HPC)", "value": "108 % of control"},
      {"measurement": "T/C", "setting": "[4]", "value": "108 % of control"},
      {"measurement": "T/C", "setting": "[5]", "value": "101 % of control"},
      {"measurement": "T/C", "setting": "[6]", "value": "105 % of control"},
      {"measurement": "T/C", "setting": "[7]", "value": "107 % of control"}
    ]},
    {"molecule": "CCCN(CCC)CN1C(=O)c2ccccc2C1=O", "values": [
      {"measurement": "T/C", "setting": "[4]", "value": "106 % of control and 92 % of control"},
      {"measurement": "T/C", "setting": "[5]", "value": "100 % of control and 105 % of control and 106 % of control"},
      {"measurement": "T/C", "setting": "[6]", "value": "109 % of control and 89 % of control and 95 % of control"},
      {"measurement": "T/C", "setting": "[7]", "value": "99 % of control and 108 % of control"}
    ]},
    {"molecule": "NCCN1C(=O)C2C3CCC(O3)C2C1=O", "note": "(centres undefined)", "values": [
      {"measurement": "T/C", "setting": "[1]", "value": "96 % of control"},
      {"measurement": "T/C", "setting": "[2]", "value": "98 % of control"},
      {"measurement": "T/C", "setting": "[3]", "value": "107 % of control"}
    ]},
    {"molecule": "CC(C)C12OC1C1OC13C1(C)CCC(O)CC1CC1OC13C2O", "note": "(centres undefined)", "values": [
      {"measurement": "T/C", "setting": "dose: 0.03 mg/kg/injection, schedule: Q01DX009 (ip), vehicle: saline + alcohol", "value": "103 % of control and 101 % of control and 111 % of control"},
      {"measurement": "T/C", "setting": "dose: 0.06 mg/kg/injection, schedule: Q01DX009 (ip), vehicle: saline + alcohol", "value": "102 % of control and 111 % of control"},
      {"measurement": "T/C", "setting": "dose: 0.12 mg/kg/injection, schedule: Q01DX009 (ip), vehicle: saline + alcohol", "value": "115 % of control and 109 % of control and 107 % of control"},
      {"measurement": "T/C", "setting": "dose: 0.25 mg/kg/injection, schedule: Q01DX009 (ip), vehicle: saline + alcohol", "value": "111 % of control and 106 % of control and 117 % of control"},
      {"measurement": "T/C", "setting": "dose: 0.5 mg/kg/injection, schedule: Q01DX009 (ip), vehicle: saline + alcohol", "value": "115 % of control and 109 % of control"},
      {"measurement": "T/C", "setting": "dose: 1.0 mg/kg/injection, schedule: Q01DX009 (ip), vehicle: saline + alcohol", "value": "109 % of control and 115 % of control"},
      {"measurement": "T/C", "setting": "dose: 2.0 mg/kg/injection, schedule: Q01DX009 (ip), vehicle: saline + alcohol", "value": "111 % of control and 103 % of control and 106 % of control"},
      {"measurement": "T/C", "setting": "dose: 4.0 mg/kg/injection, schedule: Q01DX009 (ip), vehicle: saline + alcohol", "value": "103 % of control and 100 % of control"},
      {"measurement": "T/C", "setting": "dose: 8.0 mg/kg/injection, schedule: Q01DX009 (ip), vehicle: saline + alcohol", "value": "103 % of control and 100 % of control"},
      {"measurement": "T/C", "setting": "dose: 16.0 mg/kg/injection, schedule: Q01DX009 (ip), vehicle: saline + alcohol", "value": "102 % of control and 103 % of control"}
    ]}
  ]
}
